Reference: US6713638B2, “2-amino-3-aroyl-4,5 alkylthiophenes: agonist allosteric enhancers at human A1 adenosine receptors” (priority 2001, dated 2004)
“Also recorded” adds a separate entry of the source.

Columns and labels:
[1] = biological target: T1, A1AR (Homo sapiens, UniProt P30542); assay: A1AR antagonistic activity: competition with equilibrium binding of [3H]CPX; conditions: for Antagonist activity, % (% inhibition of specific equilibrium binding of [3H]8-cyclopentyl-1,3-dipropylxanthine): 100 μM, N = 3
T1 sequence (P30542 1-326): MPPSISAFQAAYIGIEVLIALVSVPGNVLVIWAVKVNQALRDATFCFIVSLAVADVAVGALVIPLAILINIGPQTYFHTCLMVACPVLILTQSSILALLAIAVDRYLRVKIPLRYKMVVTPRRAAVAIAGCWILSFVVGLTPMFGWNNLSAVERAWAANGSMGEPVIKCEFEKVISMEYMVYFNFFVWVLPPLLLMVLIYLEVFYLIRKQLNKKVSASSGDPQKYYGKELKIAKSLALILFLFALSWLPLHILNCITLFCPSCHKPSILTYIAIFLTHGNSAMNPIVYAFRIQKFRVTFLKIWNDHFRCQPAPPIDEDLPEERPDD
Source text: Several of the candidate AEs had substantial antagonistic activity. However, the AE and antagonist activities are unrelated (r^2=0.057, n=28).

[2] = biological target: T2, hA1AR (Homo sapiens, UniProt P30542); assay: Assay of AE (allosteric enhancer) activity: slowing of 125I-ABA dissociation from the A1AR-G protein ternary complex; assay type: binding; conditions: CHO-K1 membranes; for AE Score, %: 0.1 mM final AE, specifically bound 125I-ABA remaining after 10 minutes of dissociation, Mean ± SEM (N = 3); for AE activity (in words): hA1AR
T2 construct: expressed in transfected cells; membranes
T2 sequence (P30542 1-326): T1 sequence (P30542 1-326)
Source text: The allosteric enhancer (AE) activity was studied at the human A1AR (hA1AR) of a panel of compounds consisting of nine 2-amino-3-aroylthiophenes, (3a-i), eight 2-amino-3-benzoyl-4,5-dimethylthiophenes (13a-h), […] 3-aroyl-2-carboxy-4,5-dimethylthiophenes, (17a-e), ten 2-amino-3-benzoyl-5,6-ihydro-4H-cyclopenta[b]thiophenes, (19a-I), fourteen 2-amino-3-benzoyl-4,5,6,7-tetrahyd robenzo-[b]thiophenes, (20a-n), and fifteen 2-amino-3-benzoyl-5,6,7,8-tetrahydro-4H-cyclohepta[b]thiophenes, (21a-o). An in vitro assay employing the A1AR agonist ^125I-N^6-aminobenzyladenosine (^125I-ABA) and membranes from CHO-K1 cells stably expressing the hA1AR measured, as an index of AE activity, the ability of a candidate AE to slow the dissociation of the radioligand from the A1AR-G protein ternary complex.
The assay of AE activity consisted of three phases: formation of the ^125I-ABA-A1AR-G protein ternary complex; binding of the AE to the allosteric site, and dissociation of the complex by adding a combination of an A1AR antagonist (100 μM cyclopentyltheophylline) and 50 µM GTPγS. This procedure detects only AE activity since phase 3 (dissociation) is affected only by the allosteric activity of the test compound and is not affected by competitive antagonist activity. GTPγS is added to accelerate the dissociation process. […] The assay employed membranes from CHO-K1 cells stably expressing the hA1AR. For agonist binding to equilibrium, the incubation mixture consisted of 10 mM HEPES, pH 7.2, containing 0.5 mM MgCl2, 1 U/mL adenosine deaminase, 0.5 nM ^125I-ABA and 10 μg of membrane protein in a final volume of 100 μL. This phase of the assay was allowed to proceed to equilibrium (>90 minutes) at room temperature. At that point phase 2 was initiated by adding 50 μL of a 0.3 mM solution (0.1 mM final) of a candidate AE or DMSO vehicle to rapidly occupy the allosteric site. Stock solutions of AEs (10 mM) were prepared in DMSO. Five minutes later phase 3 was initiated by the addition of 50 μL of a solution containing 400 μM 8-cyclopentyltheophylline and 200 μM GTPγS. Ten minutes later, residual radioligand bound to Aireceptors was trapped on Whatman GF/C glass fiber filters using a Brandel cell harvester, washed 3 times over a 20 second interval and counted in a γ-counter. The percentage of specifically bound agonist remaining after 10 minutes of dissociation was used to calculate the “score” of AE activity:
AE activity score=100×(B−Bo)/(Beq−Bo)
Where B=residual binding (cpm) bound at the end of 10 minutes of dissociation in the presence of an AE, Bo=residual binding (cpm) at the end of 10 minutes of dissociation in the absence of an AE, and Beq=cpm bound at the end of phase 2. A compound with no AE activity has a score of 0 in this assay. An AE which completely arrests agonist dissociation will have a score of 100.

Antagonist activity, % (% inhibition of specific equilibrium binding of [3H]8-cyclopentyl-1,3-dipropylxanthine) [1] [%]	antagonist activity (in words) ([1]; at 100 μM)	Compound	AE Score, % [2] [%]	AE activity (in words) [2]
56		Nc1sc2c(c1C(=O)c1ccc(Br)cc1)CCCC2 [Compound 20h]	83 ± 5	
40		Nc1sc2c(c1C(=O)c1cccc(F)c1)CCCC2 [Compound 20c]	22 ± 5	
		Nc1sc2c(c1C(=O)c1ccc3ccccc3c1)CCCC2 [Compound 20n]	86 ± 1	
12		Nc1sc2c(c1C(=O)c1ccc(-c3ccccc3)cc1)CCC2 [Compound 19h]	62 ± 5	
		Cc1sc2c(c1C)C(c1cccc(F)c1)=Nc1sc(C)c(C)c1C(c1cccc(F)c1)=N2 [Compound 14, 4,9-bis-(3-fluorophenyl)-2,3,7,8-tetramethyl-1,6-dithia-5,10-diaza-dicyclopenta[a,e]-cyclooctene]		lacked AE activity
		Nc1sccc1C(=O)c1ccc(Br)cc1 [Compound 3g]	0.8 ± 0.3	
		COc1ccc(C(=O)c2c(N)sc3c2CCCCC3)cc1 [Compound 21k]	85 ± 10	
		Nc1sccc1C(=O)c1ccc(Cl)cc1 [Compound 3f]	0	
		Cc1sc(C(=O)O)c(C(=O)c2ccc(-c3ccccc3)cc2)c1C [Compound 17c]	0	
9		Nc1sc2c(c1C(=O)c1ccc(Cl)cc1)CCCC2 [Compound 20g]	68 ± 10	
		Cc1sc(N)c(C(=O)c2cccc(Cl)c2)c1C [Compound 13c]	14 ± 1	
		Nc1sccc1C(=O)c1cccc(F)c1 [Compound 3b]	0	
		Nc1sccc1C(=O)c1cccc(Cl)c1 [Compound 3c]	0	
19		COc1cccc(C(=O)c2c(N)sc3c2CCCCC3)c1 [Compound 21j]	99 ± 3.1	
2		Nc1sc2c(c1C(=O)c1cccc(Cl)c1)CCCC2 [Compound 20d]	70 ± 9	
41		CCOC(=O)c1c(N)sc2c1CCCCC2 [Compound 21a]	0.3 ± 0.01	did not support AE activity; also recorded: None of the cycloalkylthiophenes having a 3-carboxyethyl substituent, namely, 19a, 20a and 21a, was active
40		Nc1sc2c(c1C(=O)c1ccc(Cl)cc1)CCC2 [Compound 19f]	22 ± 4	
		Nc1sc2c(c1C(=O)c1cccc(Br)c1)CCCC2 [Compound 20e]	49 ± 1	
		Nc1sc2c(c1C(=O)c1ccc(Cl)cc1)CCCCC2 [Compound 21g]	65 ± 6.7	
		Nc1sccc1C(=O)c1ccc(F)cc1 [Compound 3e]	0	
		Nc1sc2c(c1C(=O)c1ccc(Br)cc1)CCC2 [Compound 19g]	70 ± 7	
12	nearly devoid of antagonist activity	Nc1sc2c(c1C(=O)c1ccc(Br)cc1)CCCCC2 [Compound 21h]	86 ± 3.8	very high AE activity
		Nc1sccc1C(=O)c1cccc(Br)c1 [Compound 3d]	0.2 ± 0.03	

Antagonist activity, % (% inhibition of specific equilibrium binding of [3H]8-cyclopentyl-1,3-dipropylxanthine) [1] [%]	antagonist activity (in words) ([1]; at 100 μM)	Compound	AE Score, % [2] [%]	AE activity (in words) [2]
0		Nc1sc2c(c1C(=O)c1ccccc1)CCCCC2 [Compound 21b]	13 ± 3.8	
		Cc1sc(N)c(C(=O)c2cccc(Br)c2)c1C [Compound 13d]	16 ± 4	
		Nc1sccc1C(=O)c1ccc2ccccc2c1 [Compound 3i]	3.2 ± 1.8	
		Nc1sc2c(c1C(=O)c1ccc(F)cc1)CCCCC2 [Compound 21f]	22 ± 2.7	
63		Nc1sc2c(c1C(=O)c1ccccc1)CCC2 [Compound 19b]	20 ± 3.6	
36		Nc1sc2c(c1C(=O)c1ccc(F)cc1)CCC2 [Compound 19e]	68 ± 1	
41		Cc1ccc(C(=O)c2c(N)sc3c2CCCC3)cc1 [Compound 20j]	19 ± 7	
31		Nc1sc2c(c1C(=O)c1ccc(I)cc1)CCCC2 [Compound 20i]	86 ± 13	
		3-benzoyl-4,5-dimethylthiophene-2-carboxylic acid [Compound 17a]	0	
19		N#Cc1ccc(C(=O)c2c(N)sc3c2CCCC3)cc1 [Compound 20k]	19 ± 0.9	excellent activity
		Cc1sc(N)c(C(=O)c2cccc(-c3ccccc3)c2)c1C [Compound 13g]	12 ± 1.9	
		Cc1sc(N)c(C(=O)c2cccc(F)c2)c1C [Compound 13b]	0	
		Nc1sccc1C(=O)c1ccc(Cl)c(Cl)c1 [Compound 3h]	1.7 ± 0.8	
9		Nc1sc2c(c1C(=O)c1cccc(Cl)c1)CCCCC2 [Compound 21c]	65 ± 8	
		Cc1sc(N)c(C(=O)c2ccccc2)c1C [Compound 13a, (2-amino-4,5-dimethyl-thiophen-3-yl)(phenyl)methanone]	9	
		Cc1cccc(C(=O)c2c(N)sc(C)c2C)c1 [Compound 13e]	18 ± 0.5	
51		Nc1sc2c(c1C(=O)c1ccc(F)cc1)CCCC2 [Compound 20f]	17 ± 3	
72		CCOC(=O)c1c(N)sc2c1CCC2 [Compound 19a]	0.4 ± 0.1	did not support AE activity; also recorded: None of the cycloalkylthiophenes having a 3-carboxyethyl substituent, namely, 19a, 20a and 21a, was active
11		Nc1sc2c(c1C(=O)c1ccc(I)cc1)CCCCC2 [Compound 21i]	96 ± 4.7	
		Cc1cc(C)c(C(=O)c2c(N)sc(C)c2C)c(C)c1 [Compound 13h]	0	
		Cc1sc(C(=O)O)c(C(=O)c2cccc(C(F)(F)F)c2)c1C [Compound 17b]	0	
		Nc1sc2c(c1C(=O)c1cccc(I)c1)CCCCC2 [Compound 21e]	86 ± 9	
		Nc1sc2c(c1C(=O)c1cccc(Cl)c1)CCC2 [Compound 19c]	16 ± 2	

Compound	Antagonist activity, % (% inhibition of specific equilibrium binding of [3H]8-cyclopentyl-1,3-dipropylxanthine) [1] [%]	antagonist activity (in words) ([1]; at 100 μM)	AE Score, % [2] [%]	AE activity (in words) [2]
Nc1sc2c(c1C(=O)c1ccccc1)CCCC2 [Compound 20b]	35		19 ± 5	
CCOC(=O)c1c(N)sc2c1CCCC2 [Compound 20a]	57		3.5 ± 1.8	did not support AE activity; also recorded: None of the cycloalkylthiophenes having a 3-carboxyethyl substituent, namely, 19a, 20a and 21a, was active
